Experimental data published in US10167262B2, “Herbicidal substituted 3-arylpyrazoles” (FMC CORPORATION, priority 2014, dated 2019).

Experiments:
Assay in all cases: Test E pre-/postemergence greenhouse test, plant response rating 0-100
Assay type in all cases: in vivo
[1] = system: giant foxtail (Setaria faberii); conditions: Preemergence, scale 0 to 100
[2] = system: surinam grass (Brachiaria decumbens); conditions: Preemergence, scale 0 to 100
Procedure, shortened: (§1)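 Sow seeds in silt loam and treat preemergence; at the same time, spray postemergence on 1- to 4-leaf plants in peat/vermiculite mix. Use a non-phytotoxic solvent plus surfactant as carrier. Hold 14–21 days in greenhouse, then score visually 0–100 against controls.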

[3] = system: ragweed (common ragweed, Ambrosia elatior); conditions: Preemergence, scale 0 to 100
Procedure, shortened: as §1

[4] = system: velvetleaf (Abutilon theophrasti); conditions: Preemergence, scale 0 to 100
Procedure, shortened: as §1

[5] = system: kochia (Kochia scoparia); conditions: Preemergence, scale 0 to 100
Procedure, shortened: as §1

[6] = system: smartweed (ladysthumb smartweed, Polygonum persicaria); conditions: Postemergence, scale 0 to 100

O=C(c1ccccc1)c1cn(CO)nc1-c1cc(Cl)cc(Cl)c1 [Compound 15, [3-(3,5-dichlorophenyl)-1-(hydroxymethyl)-1H-pyrazol-4-yl]phenylmethanone]
Foxtail, Giant plant response rating ([1]; 31 g ai/ha): 0
Foxtail, Giant plant response rating ([1]; 62 g ai/ha): 0
Foxtail, Giant plant response rating ([1]; 125 g ai/ha): 0
Foxtail, Giant plant response rating ([1]; 250 g ai/ha): 0
Foxtail, Giant plant response rating ([1]; 500 g ai/ha): 0
Surinam Grass plant response rating ([2]; 31 g ai/ha): 0
Surinam Grass plant response rating ([2]; 62 g ai/ha): 0
Surinam Grass plant response rating ([2]; 125 g ai/ha): 0
Surinam Grass plant response rating ([2]; 250 g ai/ha): 0
Surinam Grass plant response rating ([2]; 500 g ai/ha): 0
Ragweed plant response rating ([3]; 31 g ai/ha): 0
Ragweed plant response rating ([3]; 62 g ai/ha): 0
Ragweed plant response rating ([3]; 125 g ai/ha): 0
Ragweed plant response rating ([3]; 250 g ai/ha): 95
Ragweed plant response rating ([3]; 500 g ai/ha): 100
Velvetleaf plant response rating ([4]; 31 g ai/ha): 20
Velvetleaf plant response rating ([4]; 62 g ai/ha): 25
Velvetleaf plant response rating ([4]; 125 g ai/ha): 35
Velvetleaf plant response rating ([4]; 250 g ai/ha): 65
Velvetleaf plant response rating ([4]; 500 g ai/ha): 100
Kochia plant response rating ([5]; 31 g ai/ha): 0
Kochia plant response rating ([5]; 62 g ai/ha): 40
Kochia plant response rating ([5]; 125 g ai/ha): 20
Kochia plant response rating ([5]; 250 g ai/ha): 75
Kochia plant response rating ([5]; 500 g ai/ha): 80
Plant response rating, Smartweed ([6]; 31 g ai/ha): 0
Plant response rating, Smartweed ([6]; 62 g ai/ha): 75
